This note sets out measurements from patent US8546340B2, “Soothing pharmaceutical or cosmetic composition comprising a peptide that activates HMG-CoA reductase” (ISP Investments Inc., priority 2008, dated 2013).

No end group written: not given here.

Experiment [1] relates to interleukin-1 alpha. Put plainly: Ex vivo IL-1 alpha secretion by human skin biopsies (ELISA). It is filed as cell-based. The settings on record: peptide 0.5 ppm 24 h, vs controls untreated by the peptide. On the procedure:
Protocol: 5 mm-diameter biopsies of human skin are maintained in culture at the air-liquid interface in the presence of standard culture medium. The samples are treated with a 1% dilution of a solution at 50 ppm of peptide SEQ ID No. 5 for 24 hours, and then irradiated by UVB radiation (200 mJ/cm^2) and put back in culture for 24 hours, or subjected to contact with SDS at 2.5% for 24 hours in the presence of the same concentration of peptide SEQ ID No. 5. Controls untreated by the peptide are carried out under the same conditions. At the end of the experiment, the quantity of interleukin-1 alpha salted out in the culture medium is assayed by the ELISA technique.
(In general: An ELISA detects its analyte on a solid surface through an enzyme-linked reagent.)

The test system of experiment [2] is HMG-CoA reductase. Description: Expression of HMG-CoA reductase in normal human keratinocytes (immunofluorescence). It is filed as cell-based. The settings on record: peptide 0.5 ppm (1% of 50 ppm stock), 24 or 48 hours. As to the method: Protocol: Normal human keratinocytes in culture are treated with a 1% stock solution at 50 ppm of peptide SEQ ID No. 5 for 24 or 48 hours (the medium in the presence of the active ingredient is changed every 24 hours). The cells are then washed and fixed in cold methanol for 4 minutes at 4° C. The cells are incubated in the presence of a polyclonal rabbit antibody specific for HMG-CoA reductase (Millipore, Upstate), and then a secondary antibody coupled with a fluorescent dye. The cells are then examined by epifluorescence microscope (Nikon Eclipse E600 microscope).

Consider “Ala-Gly-Glu-Leu-Ser-NH2 (AGELS-NH2) [Peptide SEQ ID No. 5]”, for which the “reduction of quantity of IL-1 alpha salted out in culture medium” value in experiment [1] (SDS 2.5% for 24 hours with peptide) amounted to 58%; in experiment [1] (UVB 200 mJ/cm^2, then 24 h culture), 40%. Also, the “expression of HMG-CoA reductase (cytoplasmic fluorescence, microscopic observation)” value in experiment [2] is given as “more intense cytoplasmic fluorescence”.
